Reference: publication PMC6199744, “Development of Chemical Proteomics for the Folateome and Analysis of the Kinetoplastid Folateome” (ACS Infectious Diseases, 2018)
Read-outs that look alike come from different tables or passages of the source.

Assays:
Format in all cases: binding
[1] = target: T1, HeLa cell extract proteins (Homo sapiens, UniProt P07437)
T1 construct: endogenous in cells; host or cells: HeLa cell extract

[2] = target: T2, HeLa cell extract proteins (Homo sapiens, UniProt O95619)
T2 construct: endogenous in cells; host or cells: HeLa cell extract

[3] = target: T3, HeLa cell extract proteins (Homo sapiens, UniProt Q9NTG7)
T3 construct: endogenous in cells; host or cells: HeLa cell extract
T3 sequence (Q9NTG7 1-399): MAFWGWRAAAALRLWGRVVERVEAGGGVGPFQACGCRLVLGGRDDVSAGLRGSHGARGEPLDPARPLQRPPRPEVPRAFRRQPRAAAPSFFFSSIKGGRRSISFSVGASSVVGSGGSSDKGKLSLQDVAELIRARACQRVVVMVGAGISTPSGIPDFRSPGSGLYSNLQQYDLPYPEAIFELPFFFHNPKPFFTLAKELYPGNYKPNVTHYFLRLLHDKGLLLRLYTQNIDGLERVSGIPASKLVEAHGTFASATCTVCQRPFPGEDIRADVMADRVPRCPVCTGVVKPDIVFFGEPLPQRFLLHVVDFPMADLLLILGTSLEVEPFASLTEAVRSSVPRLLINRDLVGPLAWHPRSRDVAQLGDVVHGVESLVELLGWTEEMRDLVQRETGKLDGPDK

[4] = target: T4, HeLa cell extract proteins (Homo sapiens, UniProt P17858)
T4 construct: endogenous in cells; host or cells: HeLa cell extract
T4 sequence (P17858 1-780): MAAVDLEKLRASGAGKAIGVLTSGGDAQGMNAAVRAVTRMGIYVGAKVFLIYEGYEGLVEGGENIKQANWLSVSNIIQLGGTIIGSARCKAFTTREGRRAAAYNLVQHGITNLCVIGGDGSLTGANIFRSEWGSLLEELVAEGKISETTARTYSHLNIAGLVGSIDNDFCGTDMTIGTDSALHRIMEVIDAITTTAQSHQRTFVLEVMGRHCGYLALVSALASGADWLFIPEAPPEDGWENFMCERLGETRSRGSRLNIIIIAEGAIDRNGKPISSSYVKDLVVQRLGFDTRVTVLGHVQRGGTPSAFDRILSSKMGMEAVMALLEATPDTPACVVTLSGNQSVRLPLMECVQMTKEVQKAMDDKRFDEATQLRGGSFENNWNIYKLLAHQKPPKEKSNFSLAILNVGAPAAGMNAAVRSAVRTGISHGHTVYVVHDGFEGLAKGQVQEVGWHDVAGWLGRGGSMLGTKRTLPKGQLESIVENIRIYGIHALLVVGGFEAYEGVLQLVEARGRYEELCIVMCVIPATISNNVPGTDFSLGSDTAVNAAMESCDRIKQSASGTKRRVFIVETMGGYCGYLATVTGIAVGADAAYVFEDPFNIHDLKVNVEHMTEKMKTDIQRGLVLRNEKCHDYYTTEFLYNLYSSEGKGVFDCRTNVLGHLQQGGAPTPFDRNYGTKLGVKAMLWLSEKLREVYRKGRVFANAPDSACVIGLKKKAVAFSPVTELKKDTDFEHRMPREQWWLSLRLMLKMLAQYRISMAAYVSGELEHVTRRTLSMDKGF

[5] = target: T5, HeLa cell extract proteins (Homo sapiens, UniProt P57088)
T5 construct: endogenous in cells; host or cells: HeLa cell extract
T5 sequence (P57088 1-247): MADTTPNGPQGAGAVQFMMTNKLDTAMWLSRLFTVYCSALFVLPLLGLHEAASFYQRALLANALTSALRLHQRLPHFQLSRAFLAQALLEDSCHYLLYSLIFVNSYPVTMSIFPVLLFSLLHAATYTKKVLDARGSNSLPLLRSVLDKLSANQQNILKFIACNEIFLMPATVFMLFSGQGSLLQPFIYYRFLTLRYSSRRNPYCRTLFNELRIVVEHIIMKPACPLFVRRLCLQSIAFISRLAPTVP

[6] = target: T6, HeLa cell extract proteins (Homo sapiens, UniProt P05165)
T6 construct: endogenous in cells; host or cells: HeLa cell extract
T6 sequence (P05165 53-728): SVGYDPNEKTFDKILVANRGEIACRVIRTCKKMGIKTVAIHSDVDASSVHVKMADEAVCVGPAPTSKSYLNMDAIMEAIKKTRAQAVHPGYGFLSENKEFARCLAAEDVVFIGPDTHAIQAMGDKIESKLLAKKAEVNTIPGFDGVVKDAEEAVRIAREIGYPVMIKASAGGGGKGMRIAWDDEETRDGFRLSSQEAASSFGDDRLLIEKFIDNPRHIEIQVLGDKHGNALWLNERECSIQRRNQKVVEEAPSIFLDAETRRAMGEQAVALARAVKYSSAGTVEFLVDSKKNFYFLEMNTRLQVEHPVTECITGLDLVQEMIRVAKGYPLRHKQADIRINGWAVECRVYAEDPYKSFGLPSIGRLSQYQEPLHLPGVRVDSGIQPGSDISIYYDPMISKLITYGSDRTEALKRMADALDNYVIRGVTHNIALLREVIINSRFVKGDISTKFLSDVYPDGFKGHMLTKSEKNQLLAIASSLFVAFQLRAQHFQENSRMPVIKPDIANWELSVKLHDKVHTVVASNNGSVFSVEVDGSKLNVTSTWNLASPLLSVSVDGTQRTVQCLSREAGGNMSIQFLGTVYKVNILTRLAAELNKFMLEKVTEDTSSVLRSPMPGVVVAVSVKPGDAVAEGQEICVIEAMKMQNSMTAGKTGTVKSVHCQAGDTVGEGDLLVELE

[7] = target: T7, HeLa cell extract proteins (Homo sapiens, UniProt P31942)
T7 construct: endogenous in cells; host or cells: HeLa cell extract
T7 sequence (P31942 1-346): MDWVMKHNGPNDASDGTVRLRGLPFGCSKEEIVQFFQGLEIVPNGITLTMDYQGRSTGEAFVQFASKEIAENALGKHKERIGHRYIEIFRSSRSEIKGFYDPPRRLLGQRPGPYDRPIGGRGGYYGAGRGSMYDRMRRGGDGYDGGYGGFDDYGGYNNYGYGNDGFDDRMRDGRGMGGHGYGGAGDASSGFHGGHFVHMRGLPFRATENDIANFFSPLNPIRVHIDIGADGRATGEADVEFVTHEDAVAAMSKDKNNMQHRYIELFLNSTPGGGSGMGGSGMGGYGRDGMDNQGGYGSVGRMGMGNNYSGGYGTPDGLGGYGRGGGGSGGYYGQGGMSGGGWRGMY

[8] = HeLa, protein PCCA (80 KDA PROTEIN)

T2 sequence (O95619 whole entry): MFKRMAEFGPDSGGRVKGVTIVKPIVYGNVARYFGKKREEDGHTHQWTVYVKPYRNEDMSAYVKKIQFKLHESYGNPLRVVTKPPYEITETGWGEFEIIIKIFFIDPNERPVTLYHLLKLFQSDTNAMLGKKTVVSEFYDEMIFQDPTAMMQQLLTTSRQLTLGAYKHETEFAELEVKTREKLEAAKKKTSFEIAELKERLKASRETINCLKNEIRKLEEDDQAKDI
T1 sequence (P07437 whole entry): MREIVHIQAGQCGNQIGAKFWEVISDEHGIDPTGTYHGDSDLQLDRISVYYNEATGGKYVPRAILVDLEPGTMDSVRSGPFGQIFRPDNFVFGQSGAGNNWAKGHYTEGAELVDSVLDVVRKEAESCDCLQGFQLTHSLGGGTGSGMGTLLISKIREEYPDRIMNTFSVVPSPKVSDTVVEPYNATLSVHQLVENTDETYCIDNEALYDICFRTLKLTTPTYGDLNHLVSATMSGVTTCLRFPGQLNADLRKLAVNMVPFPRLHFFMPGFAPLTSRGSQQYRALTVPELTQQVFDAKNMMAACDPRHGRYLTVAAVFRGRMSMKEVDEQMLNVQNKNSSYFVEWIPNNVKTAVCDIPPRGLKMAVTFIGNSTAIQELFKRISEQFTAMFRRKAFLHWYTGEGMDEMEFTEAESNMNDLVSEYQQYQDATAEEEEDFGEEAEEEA

With `Nc1nc2cccc(-c3ccccc3)c2n1Cc1ccc(Cl)c(Cl)c1` [compound 3] the “fold changes relative to vehicle control” value ([1]; HeLa, protein TUBB) was 1.02, the “fold changes relative to vehicle control” value ([2]; HeLa, protein YEATS4) was 0.99 and the “fold changes relative to vehicle control” value ([3]; protein SIRT3, HeLa) was 1.16. For the same compound, the “fold changes relative to vehicle control” value ([4]; captured protein PFKL, HeLa) was 1.07, the “fold changes relative to vehicle control” value ([5]; captured protein TMEM33, HeLa) was 1.14 and the “fold changes relative to vehicle control” value ([6]; captured protein PCCA, HeLa) was 1.01. The “fold changes relative to vehicle control” value ([7]; protein HNRNPH3, HeLa) was 1.09.

In the case of `NCCOCCOCC(=O)Nc1nc2ncc(CNc3ccc(C(=O)NC(CCC(=O)O)C(=O)O)cc3)nc2c(=O)[nH]1` (stereo not shown) [compound 6], the “fold changes relative to vehicle control” value ([1]; protein TUBB, HeLa) was 0.95, the “fold changes relative to vehicle control” value ([2]; HeLa, captured protein YEATS4) was 0.81 and the “fold changes relative to vehicle control” value ([3]; HeLa, captured protein SIRT3) was 0.77. The “fold changes relative to vehicle control” value ([4]; HeLa, protein PFKL) was 0.98, the “fold changes relative to vehicle control” value ([5]; HeLa, protein TMEM33) was 1 and the “fold changes relative to vehicle control” value [6, 8] was 0.98. The “fold changes relative to vehicle control” value ([7]; HeLa, captured protein HNRNPH3) was 0.99.

With `Nc1nc2[nH]cc(CCc3ccc(C(=O)N[C@@H](CCC(=O)O)C(=O)O)cc3)c2c(=O)[nH]1` [PTX, pemetrexed] the “fold changes relative to vehicle control” value [1] was 0.84, the “fold changes relative to vehicle control” value [2] was 0.99 and the “fold changes relative to vehicle control” value [3] was 0.95. For the same compound, the “fold changes relative to vehicle control” value [4] was 0.89, the “fold changes relative to vehicle control” value [5] was 0.96 and the “fold changes relative to vehicle control” value [6] was 0.21. The “fold changes relative to vehicle control” value [7] was 0.94.

`Nc1nc2c(c(=O)[nH]1)N(C=O)C(CNc1ccc(C(=O)N[C@@H](CCC(=O)O)C(=O)O)cc1)CN2` (stereo partly shown) [LEU, leucovorin] was tested, and the “fold changes relative to vehicle control” value ([1]; protein TUBB, HeLa) was 0.91, the “fold changes relative to vehicle control” value ([2]; HeLa, captured protein YEATS4) was 1.09 and the “fold changes relative to vehicle control” value ([3]; HeLa, captured protein SIRT3) was 1. For the same compound, the “fold changes relative to vehicle control” value ([4]; HeLa, protein PFKL) was 0.96, the “fold changes relative to vehicle control” value ([5]; HeLa, protein TMEM33) was 0.88 and the “fold changes relative to vehicle control” value [6, 8] was 1.07. For the same compound, the “fold changes relative to vehicle control” value ([7]; HeLa, captured protein HNRNPH3) was 0.94.

`CCCCCCOc1ccc(Cc2cnc(N)nc2N)cc1` [compound 1] was tested, and the “fold changes relative to vehicle control” value ([1]; HeLa, protein TUBB) was 0.93, the “fold changes relative to vehicle control” value ([2]; HeLa, protein YEATS4) was 1.04 and the “fold changes relative to vehicle control” value ([3]; protein SIRT3, HeLa) was 1. The “fold changes relative to vehicle control” value ([4]; captured protein PFKL, HeLa) was 0.92, the “fold changes relative to vehicle control” value ([5]; captured protein TMEM33, HeLa) was 0.86 and the “fold changes relative to vehicle control” value ([6]; captured protein PCCA, HeLa) was 1.07. The “fold changes relative to vehicle control” value ([7]; protein HNRNPH3, HeLa) was 1.08.

For `NCCCNc1ccc(C(=O)NC(CCC(=O)O)C(=O)O)cc1` (stereo not shown) [compound 7], the “fold changes relative to vehicle control” value ([1]; protein TUBB, HeLa) was 0.98, the “fold changes relative to vehicle control” value ([2]; HeLa, captured protein YEATS4) was 1.29 and the “fold changes relative to vehicle control” value ([3]; HeLa, captured protein SIRT3) was 0.92. The “fold changes relative to vehicle control” value ([4]; HeLa, protein PFKL) was 1.07, the “fold changes relative to vehicle control” value ([5]; HeLa, protein TMEM33) was 1.03 and the “fold changes relative to vehicle control” value [6, 8] was 1.04. For the same compound, the “fold changes relative to vehicle control” value ([7]; HeLa, captured protein HNRNPH3) was 1.01.

In the case of `CCCCCCOc1cccc(Cc2cnc(N)nc2N)c1` [compound 2], the “fold changes relative to vehicle control” value ([1]; HeLa, protein TUBB) was 0.82, the “fold changes relative to vehicle control” value ([2]; HeLa, protein YEATS4) was 0.92 and the “fold changes relative to vehicle control” value ([3]; protein SIRT3, HeLa) was 1. The “fold changes relative to vehicle control” value ([4]; captured protein PFKL, HeLa) was 0.96, the “fold changes relative to vehicle control” value ([5]; captured protein TMEM33, HeLa) was 0.93 and the “fold changes relative to vehicle control” value ([6]; captured protein PCCA, HeLa) was 0.99. The “fold changes relative to vehicle control” value ([7]; protein HNRNPH3, HeLa) was 0.97.
